Where a SMILES comes first, the peptide text is derived from it. [ ]: non-standard residue; d: D form. The star is where a group is joined. X1 = Cc1ccc(Nc2ncc3c(n2)N(C)C(=O)N(c2cc(C(=O)*)ccc2C)C3)cn1; Aib = CC(C)(N)C(=O)O
What was measured:
Assay in all cases: kinase selectivity profiling
Type in all cases: biochemical
Conditions in all cases: 10µM ATP, read-out: % inhibition (relative to DMSO)
Aurora B = biological target: T1, Aurora B (Homo sapiens, UniProt Q96GD4)
T1 construct: purchased Reaction Biology Corp
Experimental: (§1) Full panel kinase profiling and kinase IC50 measurement were performed by using Reaction Biology Corp. (San Diego, USA).

Aurora C = biological target: T2, Aurora C (Homo sapiens, UniProt Q9UQB9)
T2 construct: purchased Reaction Biology Corp
Experimental: as §1

BMX/ETK = biological target: T3, BMX/ETK (Homo sapiens, UniProt P51813)
T3 construct: purchased Reaction Biology Corp
Experimental: as §1

Blk = biological target: T4, Blk (Homo sapiens, UniProt P51451)
T4 construct: purchased Reaction Biology Corp
Experimental: as §1

CDK1/cyclin E = biological target: T5, CDK1/cyclin E (Homo sapiens, UniProt P06493)
T5 construct: purchased Reaction Biology Corp
Experimental: as §1

CDK14/cyclin Y (PFTK1) = biological target: T6, CDK14/cyclin Y (PFTK1) (Homo sapiens, UniProt O94921)
T6 construct: purchased Reaction Biology Corp
Experimental: as §1

CDK2/cyclin A = biological target: T7, CDK2/cyclin A (Homo sapiens, UniProt P24941)
T7 construct: purchased Reaction Biology Corp
Experimental: as §1

CDK7/cyclin H = biological target: T8, CDK7/cyclin H (Homo sapiens, UniProt P50613)
T8 construct: purchased Reaction Biology Corp
Experimental: as §1

CSK = biological target: T9, CSK (Homo sapiens, UniProt P41240)
T9 construct: purchased Reaction Biology Corp
Experimental: as §1

CTK/MATK = biological target: T10, CTK/MATK (Homo sapiens, UniProt P42679)
T10 construct: purchased Reaction Biology Corp
Experimental: as §1

DDR1 = biological target: T11, DDR1 (Homo sapiens, UniProt Q08345)
T11 construct: purchased Reaction Biology Corp
Experimental: as §1

DYRK1/DYRK1A = biological target: T12, DYRK1/DYRK1A (Homo sapiens, UniProt Q13627)
T12 construct: purchased Reaction Biology Corp
Experimental: as §1

EPHA5 = biological target: T13, EPHA5 (Homo sapiens, UniProt P54756)
T13 construct: purchased Reaction Biology Corp
Experimental: as §1

ERBB2/HER2 = biological target: T14, ERBB2/HER2 (Homo sapiens, UniProt P04626)
T14 construct: purchased Reaction Biology Corp
Experimental: as §1

FLT1/VEGFR1 = biological target: T15, FLT1/VEGFR1 (Homo sapiens, UniProt P17948)
T15 construct: purchased Reaction Biology Corp
Experimental: as §1

HGK/MAP4K4 = biological target: T16, HGK/MAP4K4 (Homo sapiens, UniProt O95819)
T16 construct: purchased Reaction Biology Corp
Experimental: as §1

IGF1R = biological target: T17, IGF1R (Homo sapiens, UniProt P08069)
T17 construct: purchased Reaction Biology Corp
Experimental: as §1

IKKb/IKBKB = biological target: T18, IKKb/IKBKB (Homo sapiens, UniProt O14920)
T18 construct: purchased Reaction Biology Corp
Experimental: as §1

IRAK4 = biological target: T19, IRAK4 (Homo sapiens, UniProt Q9NWZ3)
T19 construct: purchased Reaction Biology Corp
Experimental: as §1

LATS2 = biological target: T20, LATS2 (Homo sapiens, UniProt Q9NRM7)
T20 construct: purchased Reaction Biology Corp
Experimental: as §1

MEK2 = biological target: T21, MEK2 (Homo sapiens, UniProt P36507)
T21 construct: purchased Reaction Biology Corp
Experimental: as §1

MEKK1 = biological target: T22, MEKK1 (Homo sapiens, UniProt Q13233)
T22 construct: purchased Reaction Biology Corp
Experimental: as §1

MEKK3 = biological target: T23, MEKK3 (Homo sapiens, UniProt Q99759)
T23 construct: purchased Reaction Biology Corp
Experimental: as §1

MNK1 = biological target: T24, MNK1 (Homo sapiens, UniProt Q9BUB5)
T24 construct: purchased Reaction Biology Corp
Experimental: as §1

MRCKb/CDC42BPB = biological target: T25, MRCKb/CDC42BPB (Homo sapiens, UniProt Q9Y5S2)
T25 construct: purchased Reaction Biology Corp
Experimental: as §1

PAK3 = biological target: T26, PAK3 (Homo sapiens, UniProt O75914)
T26 construct: purchased Reaction Biology Corp
Experimental: as §1

PAK5 = biological target: T27, PAK5 (Homo sapiens, UniProt Q9P286)
T27 construct: purchased Reaction Biology Corp
Experimental: as §1

PKCb2 = biological target: T28, PKCb2 (Homo sapiens, UniProt P05771)
T28 construct: purchased Reaction Biology Corp
Experimental: as §1

PKCd = biological target: T29, PKCd (Homo sapiens, UniProt Q05655)
T29 construct: purchased Reaction Biology Corp
Experimental: as §1

PKCeta = biological target: T30, PKCeta (Homo sapiens, UniProt P24723)
T30 construct: purchased Reaction Biology Corp
Experimental: as §1

PKCtheta = biological target: T31, PKCtheta (Homo sapiens, UniProt Q04759)
T31 construct: purchased Reaction Biology Corp
Experimental: as §1

PLK3 = biological target: T32, PLK3 (Homo sapiens, UniProt Q9H4B4)
T32 construct: purchased Reaction Biology Corp
Experimental: as §1

PYK2 = biological target: T33, PYK2 (Homo sapiens, UniProt Q14289)
T33 construct: purchased Reaction Biology Corp
Experimental: as §1

RIPK5 = biological target: T34, RIPK5 (Homo sapiens, UniProt Q6XUX3)
T34 construct: purchased Reaction Biology Corp
Experimental: as §1

RSK4 = biological target: T35, RSK4 (Homo sapiens, UniProt Q9UK32)
T35 construct: purchased Reaction Biology Corp
Experimental: as §1

STK21/CIT = biological target: T36, STK21/CIT (Homo sapiens, UniProt O14578)
T36 construct: purchased Reaction Biology Corp
Experimental: as §1

STK38L/NDR2 = biological target: T37, STK38L/NDR2 (Homo sapiens, UniProt Q9Y2H1)
T37 construct: purchased Reaction Biology Corp
Experimental: as §1

SYK = biological target: T38, SYK (Homo sapiens, UniProt P43405)
T38 construct: purchased Reaction Biology Corp
Experimental: as §1

TEC = biological target: T39, TEC (Homo sapiens, UniProt P42680)
T39 construct: purchased Reaction Biology Corp
Experimental: as §1

TYK1/LTK = biological target: T40, TYK1/LTK (Homo sapiens, UniProt P29376)
T40 construct: purchased Reaction Biology Corp
Experimental: as §1

TYK2 = biological target: T41, TYK2 (Homo sapiens, UniProt P29597)
T41 construct: purchased Reaction Biology Corp
Experimental: as §1

ZIPK/DAPK3 = biological target: T42, ZIPK/DAPK3 (Homo sapiens, UniProt O43293)
T42 construct: purchased Reaction Biology Corp
Experimental: as §1

p70S6Kb/RPS6KB2 = biological target: T43, p70S6Kb/RPS6KB2 (Homo sapiens, UniProt Q9UBS0)
T43 construct: purchased Reaction Biology Corp
Experimental: as §1

T25 sequence (Q9Y5S2 whole entry): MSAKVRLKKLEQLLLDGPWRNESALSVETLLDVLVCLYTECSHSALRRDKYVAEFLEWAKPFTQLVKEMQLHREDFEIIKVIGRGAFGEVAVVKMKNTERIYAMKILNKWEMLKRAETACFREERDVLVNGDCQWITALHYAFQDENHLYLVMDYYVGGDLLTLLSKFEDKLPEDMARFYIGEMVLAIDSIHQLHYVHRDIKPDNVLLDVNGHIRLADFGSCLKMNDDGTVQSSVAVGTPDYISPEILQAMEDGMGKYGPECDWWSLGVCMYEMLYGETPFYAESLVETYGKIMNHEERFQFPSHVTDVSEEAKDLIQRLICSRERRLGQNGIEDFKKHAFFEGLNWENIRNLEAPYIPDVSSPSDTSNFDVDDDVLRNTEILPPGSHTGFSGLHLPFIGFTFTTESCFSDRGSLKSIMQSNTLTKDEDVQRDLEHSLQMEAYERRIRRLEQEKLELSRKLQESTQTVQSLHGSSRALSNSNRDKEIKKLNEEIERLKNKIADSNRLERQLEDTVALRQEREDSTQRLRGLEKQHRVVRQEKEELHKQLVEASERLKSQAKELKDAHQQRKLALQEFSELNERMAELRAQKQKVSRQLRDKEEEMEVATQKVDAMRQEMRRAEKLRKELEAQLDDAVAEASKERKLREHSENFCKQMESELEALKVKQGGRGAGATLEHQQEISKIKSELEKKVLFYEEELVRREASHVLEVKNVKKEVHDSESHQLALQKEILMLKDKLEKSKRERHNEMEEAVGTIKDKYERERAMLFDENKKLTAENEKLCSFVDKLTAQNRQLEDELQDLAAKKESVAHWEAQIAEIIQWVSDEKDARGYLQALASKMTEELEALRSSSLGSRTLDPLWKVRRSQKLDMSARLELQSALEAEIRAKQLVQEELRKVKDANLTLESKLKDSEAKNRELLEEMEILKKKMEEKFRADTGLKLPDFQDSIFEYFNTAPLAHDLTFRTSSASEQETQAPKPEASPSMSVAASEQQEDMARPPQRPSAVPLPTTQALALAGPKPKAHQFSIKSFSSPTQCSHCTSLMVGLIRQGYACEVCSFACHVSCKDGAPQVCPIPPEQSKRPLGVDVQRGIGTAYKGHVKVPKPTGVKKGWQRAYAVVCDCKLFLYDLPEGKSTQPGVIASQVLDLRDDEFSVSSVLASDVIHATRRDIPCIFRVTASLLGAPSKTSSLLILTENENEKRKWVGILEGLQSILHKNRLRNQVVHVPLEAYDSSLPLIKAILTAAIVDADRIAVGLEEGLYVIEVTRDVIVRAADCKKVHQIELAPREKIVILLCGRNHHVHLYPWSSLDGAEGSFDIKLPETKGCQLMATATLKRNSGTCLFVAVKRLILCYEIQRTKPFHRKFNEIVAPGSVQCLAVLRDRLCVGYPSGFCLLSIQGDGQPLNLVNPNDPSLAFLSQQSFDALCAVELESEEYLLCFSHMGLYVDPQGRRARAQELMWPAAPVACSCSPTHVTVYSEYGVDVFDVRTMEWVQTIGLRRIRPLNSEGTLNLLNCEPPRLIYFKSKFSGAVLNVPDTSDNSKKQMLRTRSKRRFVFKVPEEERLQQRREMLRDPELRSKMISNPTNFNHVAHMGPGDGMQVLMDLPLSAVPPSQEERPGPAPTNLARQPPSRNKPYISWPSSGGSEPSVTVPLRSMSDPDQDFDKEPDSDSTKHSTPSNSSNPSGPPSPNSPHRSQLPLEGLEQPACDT
T32 sequence (Q9H4B4 whole entry): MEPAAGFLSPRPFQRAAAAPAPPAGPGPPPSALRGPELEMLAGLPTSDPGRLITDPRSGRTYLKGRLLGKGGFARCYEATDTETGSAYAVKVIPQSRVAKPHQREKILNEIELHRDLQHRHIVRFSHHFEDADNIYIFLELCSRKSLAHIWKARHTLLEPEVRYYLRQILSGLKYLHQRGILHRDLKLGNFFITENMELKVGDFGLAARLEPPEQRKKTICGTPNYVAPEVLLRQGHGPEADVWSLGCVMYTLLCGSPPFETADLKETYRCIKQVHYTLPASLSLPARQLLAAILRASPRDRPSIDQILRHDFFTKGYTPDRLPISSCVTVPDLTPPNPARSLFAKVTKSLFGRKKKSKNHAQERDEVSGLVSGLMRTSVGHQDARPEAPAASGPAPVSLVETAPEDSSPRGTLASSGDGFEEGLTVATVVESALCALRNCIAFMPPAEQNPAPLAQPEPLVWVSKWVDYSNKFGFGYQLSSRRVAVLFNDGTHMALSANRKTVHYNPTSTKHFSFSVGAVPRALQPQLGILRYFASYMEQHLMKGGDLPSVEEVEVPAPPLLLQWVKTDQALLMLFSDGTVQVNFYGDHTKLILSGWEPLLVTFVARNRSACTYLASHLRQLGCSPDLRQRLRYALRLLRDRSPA
T21 sequence (P36507 whole entry): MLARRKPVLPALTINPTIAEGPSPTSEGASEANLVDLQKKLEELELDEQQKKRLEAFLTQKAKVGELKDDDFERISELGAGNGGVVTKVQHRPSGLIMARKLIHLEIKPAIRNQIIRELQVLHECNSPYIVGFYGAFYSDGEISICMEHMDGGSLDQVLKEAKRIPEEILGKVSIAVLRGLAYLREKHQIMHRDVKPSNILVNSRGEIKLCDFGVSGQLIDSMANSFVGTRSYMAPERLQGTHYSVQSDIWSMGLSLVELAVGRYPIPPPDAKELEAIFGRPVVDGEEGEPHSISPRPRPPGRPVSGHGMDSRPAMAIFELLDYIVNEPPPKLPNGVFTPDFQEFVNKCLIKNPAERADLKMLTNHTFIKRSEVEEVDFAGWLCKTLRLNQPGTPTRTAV
T27 sequence (Q9P286 whole entry): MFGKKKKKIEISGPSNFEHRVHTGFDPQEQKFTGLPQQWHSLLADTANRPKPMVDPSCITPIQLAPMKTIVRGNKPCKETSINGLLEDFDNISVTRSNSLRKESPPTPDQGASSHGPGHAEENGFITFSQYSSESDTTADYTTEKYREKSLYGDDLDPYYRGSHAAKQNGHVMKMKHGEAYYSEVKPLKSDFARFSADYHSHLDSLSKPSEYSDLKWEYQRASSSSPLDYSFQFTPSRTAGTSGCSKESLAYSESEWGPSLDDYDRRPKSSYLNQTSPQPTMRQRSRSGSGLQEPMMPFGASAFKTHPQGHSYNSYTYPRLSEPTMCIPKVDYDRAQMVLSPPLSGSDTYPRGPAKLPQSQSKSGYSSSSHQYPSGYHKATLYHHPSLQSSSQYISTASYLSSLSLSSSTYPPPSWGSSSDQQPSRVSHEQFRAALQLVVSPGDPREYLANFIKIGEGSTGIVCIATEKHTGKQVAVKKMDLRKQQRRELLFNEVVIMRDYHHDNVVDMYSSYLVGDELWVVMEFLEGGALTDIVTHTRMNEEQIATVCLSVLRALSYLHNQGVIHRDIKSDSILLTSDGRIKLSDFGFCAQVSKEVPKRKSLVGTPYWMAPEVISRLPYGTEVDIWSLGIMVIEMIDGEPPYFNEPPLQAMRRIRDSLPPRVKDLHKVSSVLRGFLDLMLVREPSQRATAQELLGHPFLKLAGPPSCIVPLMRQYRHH
T31 sequence (Q04759 whole entry): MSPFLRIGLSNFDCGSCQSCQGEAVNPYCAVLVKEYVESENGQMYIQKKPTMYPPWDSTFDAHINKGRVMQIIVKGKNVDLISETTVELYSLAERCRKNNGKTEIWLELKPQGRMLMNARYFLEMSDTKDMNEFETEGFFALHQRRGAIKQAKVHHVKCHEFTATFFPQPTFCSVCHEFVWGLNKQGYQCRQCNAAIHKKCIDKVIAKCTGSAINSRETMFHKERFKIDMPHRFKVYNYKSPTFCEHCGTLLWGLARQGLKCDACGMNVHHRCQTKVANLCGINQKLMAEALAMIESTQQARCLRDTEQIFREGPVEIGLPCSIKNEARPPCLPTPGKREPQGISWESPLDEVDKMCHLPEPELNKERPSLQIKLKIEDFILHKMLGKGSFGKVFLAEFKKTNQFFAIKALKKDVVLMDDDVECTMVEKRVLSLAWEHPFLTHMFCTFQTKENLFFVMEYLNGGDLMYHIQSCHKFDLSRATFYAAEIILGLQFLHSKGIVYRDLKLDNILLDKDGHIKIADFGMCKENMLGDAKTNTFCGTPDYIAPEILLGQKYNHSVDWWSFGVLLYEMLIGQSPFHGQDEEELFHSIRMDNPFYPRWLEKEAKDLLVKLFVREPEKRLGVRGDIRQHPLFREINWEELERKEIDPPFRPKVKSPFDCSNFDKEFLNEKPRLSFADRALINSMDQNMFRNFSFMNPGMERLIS
T18 sequence (O14920 whole entry): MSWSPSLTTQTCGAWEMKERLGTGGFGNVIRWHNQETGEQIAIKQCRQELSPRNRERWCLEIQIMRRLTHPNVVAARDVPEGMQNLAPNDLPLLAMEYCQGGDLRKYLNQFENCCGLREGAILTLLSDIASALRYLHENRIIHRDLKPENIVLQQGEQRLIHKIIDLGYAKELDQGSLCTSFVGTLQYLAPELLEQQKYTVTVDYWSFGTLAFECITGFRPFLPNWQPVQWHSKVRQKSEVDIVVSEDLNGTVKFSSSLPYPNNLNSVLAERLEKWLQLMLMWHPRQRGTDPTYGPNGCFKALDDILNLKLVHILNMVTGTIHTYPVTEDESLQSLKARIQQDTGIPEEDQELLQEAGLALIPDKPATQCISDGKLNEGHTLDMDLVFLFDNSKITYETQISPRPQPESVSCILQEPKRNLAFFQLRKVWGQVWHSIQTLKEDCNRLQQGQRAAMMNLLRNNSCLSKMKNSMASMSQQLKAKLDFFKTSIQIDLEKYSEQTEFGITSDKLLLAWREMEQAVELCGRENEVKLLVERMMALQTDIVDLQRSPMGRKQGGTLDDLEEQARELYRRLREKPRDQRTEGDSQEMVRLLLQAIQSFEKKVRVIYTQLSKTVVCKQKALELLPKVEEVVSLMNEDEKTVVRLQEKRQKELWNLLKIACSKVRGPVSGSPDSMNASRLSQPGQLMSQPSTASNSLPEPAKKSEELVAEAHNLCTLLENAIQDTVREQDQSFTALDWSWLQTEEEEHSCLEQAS

For `Cc1ccc(Nc2ncc3c(n2)N(C)C(=O)N(c2cc(C(=O)N[C@H](C(=O)N4CCC[C@H]4C(=O)NC(C)(C)C(=O)N[C@@H](CC(C)C)C(=O)N(C)C)C(C)C)ccc2C)C3)cn1` [7a, (S)-N-(1-(((S)-1-(dimethylamino)-4-methyl-1-oxopentan-2-yl)amino)-2-methyl-1-oxopropan-2-yl)-1-((4-methyl-3-(1-methyl-7-((6-methylpyridin-3-yl)amino)-2-oxo-1,4-dihydropyrimido[4,5-d]pyrimidin-3(2H)-yl)benzoyl)-L-valyl)pyrrolidine-2-carboxamide] (X1-VP[Aib]L-NMe2), the inhibition at 1 µM (Aurora B) was 6%, the inhibition at 1 µM (Aurora C) was 0% and the inhibition at 1 µM (BMX/ETK) was 73%. It also gave an inhibition at 1 µM (Blk) of 73%, an inhibition at 1 µM (CDK1/cyclin E) of 0% and an inhibition at 1 µM (CDK14/cyclin Y (PFTK1)) of 6%. The inhibition at 1 µM (CDK2/cyclin A) was 0%, the inhibition at 1 µM (CDK7/cyclin H) was 3% and the inhibition at 1 µM (CSK) was 44%. For the same compound, the inhibition at 1 µM (CTK/MATK) was 10%, the inhibition at 1 µM (DDR1) was 80% and the inhibition at 1 µM (DYRK1/DYRK1A) was 20%. The inhibition at 1 µM (EPHA5) was 23%, the inhibition at 1 µM (ERBB2/HER2) was 10% and the inhibition at 1 µM (FLT1/VEGFR1) was 9%. It also gave an inhibition at 1 µM (HGK/MAP4K4) of 0%, an inhibition at 1 µM (IGF1R) of 0% and an inhibition at 1 µM (IKKb/IKBKB) of 0%. The inhibition at 1 µM (IRAK4) was 4%, the inhibition at 1 µM (LATS2) was 1% and the inhibition at 1 µM (MEK2) was 11%. It also gave an inhibition at 1 µM (MEKK1) of 3%, an inhibition at 1 µM (MEKK3) of 11% and an inhibition at 1 µM (MNK1) of 8%. The inhibition at 1 µM (MRCKb/CDC42BPB) was 0%, the inhibition at 1 µM (PAK3) was 0% and the inhibition at 1 µM (PAK5) was 9%. For the same compound, the inhibition at 1 µM (PKCb2) was 0%, the inhibition at 1 µM (PKCd) was 0% and the inhibition at 1 µM (PKCeta) was 27%. For the same compound, the inhibition at 1 µM (PKCtheta) was 0%, the inhibition at 1 µM (PLK3) was 3% and the inhibition at 1 µM (PYK2) was 8%. It also gave an inhibition at 1 µM (RIPK5) of 0%, an inhibition at 1 µM (RSK4) of 0% and an inhibition at 1 µM (STK21/CIT) of 0%. For the same compound, the inhibition at 1 µM (STK38L/NDR2) was 4%, the inhibition at 1 µM (SYK) was 0% and the inhibition at 1 µM (TEC) was 2%. For the same compound, the inhibition at 1 µM (TYK1/LTK) was 0%, the inhibition at 1 µM (TYK2) was 1% and the inhibition at 1 µM (ZIPK/DAPK3) was 6%. For the same compound, the inhibition at 1 µM (p70S6Kb/RPS6KB2) was 0%.

From article PMC9067983, “Identification of highly selective type II kinase inhibitors with chiral peptidomimetic tails” (Journal of Enzyme Inhibition and Medicinal Chemistry, 2022)
